# Test results taken from patent US20220107328A1, “METHODS OF TREATING LIVER DISEASES” (Camp4 Therapeutics Corporation, priority 2018, published 2022).
# Legend:
# [1] = system: PCSK9 mRNA; assay: qRT-PCR of PCSK9 mRNA in primary hepatocytes; assay type: cell-based, human; conditions: donor 4178, 3 μM, relative to GUSB
# [2] = system: PNPLA3 mRNA; assay: qRT-PCR of PNPLA3 mRNA in compound-treated mouse hepatocytes; assay type: cell-based; conditions: for Relative PNPLA3 mRNA levels: mouse hepatocytes, 1 μM, normalized to ACTB
# [3] = system: PNPLA3 mRNA; assay: qRT-PCR of PNPLA3 mRNA in human primary hepatic stellate cells; assay type: cell-based; conditions: for Primary Stellate cells PNPLA3 (fold change in mRNA expression): 3 μM, relative to GAPDH; for Relative PNPLA3 mRNA levels RQ: hepatic stellate cells
# [4] = system: COL1A1 mRNA; assay: qRT-PCR of COL1A1 mRNA in human primary hepatic stellate cells; assay type: cell-based; conditions: for Primary Stellate cells COL1A1 (fold change in mRNA expression): 3 μM, relative to GAPDH; for Relative COL1A1 mRNA levels RQ: hepatic stellate cells
# [5] = system: PNPLA3 mRNA; assay: qRT-PCR of PNPLA3 mRNA in compound-treated primary human hepatocytes; conditions: for Relative PNPLA3 mRNA levels: mTOR pathway inhibitors, 10 μM, human hepatocytes, qRT-PCR, mean of three replicates ± standard deviation; for Primary Hepatocytes 4178 PNPLA3 (fold change in mRNA expression): donor 4178, 3 μM; for Primary Hepatocytes 4178 PNPLA3 (fold change in mRNA expression) / Primary Hepatocytes 4282 PNPLA3 (fold change in mRNA expression): relative to GUSB; for Primary Hepatocytes 4282 PNPLA3 (fold change in mRNA expression): donor 4282, 3 μM; for mrna remaining at 10 µM / mrna remaining at 1 µM: Homo sapiens, Hepatocyte
# [6] = system: PNPLA3 expression; assay: RNA-seq of compound-treated primary human hepatocytes; assay type: cell-based; conditions: PNPLA3 expression, RNA-seq
# Protocol: Cryopreserved hepatocytes were cultured in plating media for 16 hours, transferred to maintenance media for 4 hours. Cultured on serum-free media for 2 hours, then a compound was added. The hepatocytes were maintained on the serum-free media for 16 hours prior to gene expression analysis.
# Human hepatocytes cultured as described above were plated in 24-well format, adding 375,000 cells per well in a volume of 500 μl plating medium. Four hours before treatment, cells were washed with PBS and the medium was changed to either: fresh maintenance medium (complete) or modified maintenance medium.
# Compound stocks were prepared at 1000× final concentration and added in a 2-step dilution to the medium to reduce risk of a compound precipitating out of solution when added to the cells, and to ensure reasonable pipetting volumes. One at a time, each compound was first diluted 10-fold in warm (about 37° C.) modified maintenance medium (initial dilution=ID), mixed by vortexing, and the ID was diluted 100-fold into the cell culture (e.g. 5.1 μl into 1 well of a 24-well plate containing 0.5 mL medium). The plate was mixed by carefully swirling and after all wells were treated and returned to the incubator overnight. If desired, separate plates/wells were treated with vehicle-only controls and/or positive controls. If using multi-well plates, controls were included on each plate. After about 18 hours, cells were harvested for further analysis, e.g., ChIP-seq, RNA-seq, ATAC-seq, etc.
# The expression level of each gene was quantified with normalized FPKM (fragments per kilobase of exon per million mapped fragments). The differentially expressed genes were called using Cuffdiff v2.2.1 with q value<0.01 and log2 fold change>=1 or <=−1.
# To identify small molecules that modulate PNPLA3, primary human hepatocytes were prepared as a monoculture, and at least one small molecule compound was applied to the cells.
# RNA-seq was performed to determine the effects of the compounds on PNPLA3 expression in hepatocytes. Fold change was calculated by dividing the level of expression in the cell system that had been perturbed by the level of expression in an unperturbed system. Changes in expression having a p-value≤0.05 were considered significant.
Compound,Primary Hepatocytes 4178 PCSK9 (fold change in mRNA expression) [1],Relative PNPLA3 mRNA levels [2],Primary Stellate cells PNPLA3 (fold change in mRNA expression) [3],Relative PNPLA3 mRNA levels RQ ([3]; 0.01 μM),Relative PNPLA3 mRNA levels RQ ([3]; 0.1 μM),Relative PNPLA3 mRNA levels RQ ([3]; 1 μM),Relative PNPLA3 mRNA levels RQ ([3]; 10 μM),Primary Stellate cells COL1A1 (fold change in mRNA expression) [4],Relative COL1A1 mRNA levels RQ ([4]; 0.01 μM),Relative COL1A1 mRNA levels RQ ([4]; 0.1 μM),Relative COL1A1 mRNA levels RQ ([4]; 1 μM),Relative COL1A1 mRNA levels RQ ([4]; 10 μM),Relative PNPLA3 mRNA levels [5],Primary Hepatocytes 4178 PNPLA3 (fold change in mRNA expression) [5],Primary Hepatocytes 4282 PNPLA3 (fold change in mRNA expression) [5],also measured
COc1ccc(-c2ccc3c(N4CCOC[C@@H]4C)nc(N4CCOC[C@@H]4C)nc3n2)cc1CO [AZD-8055],0.68,0.21 ± 0.11,0.36,0.38,0.44,0.45,0.39,0.46,0.71,0.58,0.35,0.27,0.52 ± 0.16,,,
COc1nc(N)nc2c1ncn2[C@@H]1O[C@H](COP(=O)(N[C@@H](C)C(=O)OCC(C)(C)C)Oc2cccc3ccccc23)[C@@H](O)[C@@]1(C)O (stereo partly shown) [BMS-986094],,,,,,,,,,,,,,,,Fold change (Log 2) vs untreated [6]: −0.69
CCNC(=O)Nc1ccc(-c2nc(N3CCOC[C@@H]3C)c3c(n2)C(C)(C)S(=O)(=O)C3)cc1 [CZ415],0.66,0.20 ± 0.11,0.37,0.87,0.47,0.31,0.35,0.59,1.01,0.86,0.28,0.27,0.62 ± 0.07,0.60,0.70,
CO[C@H]1C[C@@H]2CC[C@@H](C)[C@@](O)(O2)C(=O)C(=O)N2CCCC[C@H]2C(=O)O[C@H]([C@H](C)C[C@@H]2CC[C@@H](OCCO)[C@H](OC)C2)CC(=O)[C@H](C)/C=C(\C)[C@@H](O)[C@@H](OC)C(=O)[C@H](C)C[C@H](C)/C=C/C=C/C=C/1C [Everolimus],0.66,0.31 ± 0.10,0.36,0.64,0.47,0.56,0.44,0.93,1.07,1.01,1.12,1.19,0.98 ± 0.17,0.60,1.00,
Cc1cccc(-c2nn3c(c2-c2ccnc4ccc(C(N)=O)cc24)CCC3)n1 [LY2157299 Galunisertib],,,,,,,,,,,,,,,,"mrna remaining at 10 µM ([2]; Hepatocyte, Mouse hepatocytes, 10 uM, read-out: PNPLA3 mRNA remaining after treatment compared to untreated cells): 102%; mrna remaining at 1 µM ([3]; Human Stellate, 1 uM, read-out: PNPLA3 mRNA remaining after treatment compared to untreated cells): 65%; mrna remaining at 10 µM ([3]; Human Stellate, 10 uM, read-out: PNPLA3 mRNA remaining after treatment compared to untreated cells): 100%; mrna remaining at 10 µM ([5]; read-out: PNPLA3 mRNA remaining after treatment compared to untreated cells, H Hep Donor-1, 10 uM): 50%; mrna remaining at 10 µM ([5]; read-out: PNPLA3 mRNA remaining after treatment compared to untreated cells, H Hep Donor-2, 10 uM): 70%; mrna remaining at 10 µM ([5]; read-out: PNPLA3 mRNA remaining after treatment compared to untreated cells, H Hep Donor-3, 10 uM): 80%; mrna remaining at 1 µM ([5]; read-out: PNPLA3 mRNA remaining after treatment compared to untreated cells, H Hep Donor-4, 1 uM): 75%; mrna remaining at 10 µM ([5]; read-out: PNPLA3 mRNA remaining after treatment compared to untreated cells, H Hep Donor-4, 10 uM): 50%; mrna remaining at 1 µM ([5]; read-out: PNPLA3 mRNA remaining after treatment compared to untreated cells, H Hep Donor-5, 1 uM): 55%; mrna remaining at 10 µM ([5]; read-out: PNPLA3 mRNA remaining after treatment compared to untreated cells, H Hep Donor-5, 10 uM): 50%"
FC(F)(F)c1ccc(/C=C/c2nc(COc3ccc(CCCCn4ccnn4)cc3)co2)cc1 [Mubritinib (TAK 165)],,,,,,,,,,,,,,,,"PNPLA3 mRNA remaining after treatment compared to untreated cells ([2]; Mouse hepatocytes, 1 uM): 1.12; PNPLA3 mRNA remaining after treatment compared to untreated cells ([2]; Mouse hepatocytes, 10 uM): 0.09; PNPLA3 mRNA remaining after treatment compared to untreated cells ([3]; Human Stellate, 1 uM): 0.2; PNPLA3 mRNA remaining after treatment compared to untreated cells ([3]; Human Stellate, 10 uM): 0.78; PNPLA3 mRNA remaining after treatment compared to untreated cells ([5]; H Hep Donor-2, 10 uM): 0.39; PNPLA3 mRNA remaining after treatment compared to untreated cells ([5]; H Hep Donor-3, 10 uM): 0.2; PNPLA3 mRNA remaining after treatment compared to untreated cells ([5]; H Hep Donor-4, 1 uM): 0.55; PNPLA3 mRNA remaining after treatment compared to untreated cells ([5]; H Hep Donor-4, 10 uM): 0.4; PNPLA3 mRNA remaining after treatment compared to untreated cells ([5]; H Hep Donor-5, 1 uM): 0.6; PNPLA3 mRNA remaining after treatment compared to untreated cells ([5]; H Hep Donor-5, 10 uM): 0.25"
